Laboratory results as given in patent US5872138A, “Thrombin inhibitors” (Merck & Co., Inc., priority 1997, dated 1999).
Structures can show the parent of a compound that is named as a salt.

The compounds below were run against T1, human a-thrombin (Homo sapiens, UniProt P00734) (assay: In vitro assay for determining proteinase inhibition (thrombin Ki)). Conditions: Table 2; 25° C., pH 7.4; read-out: Ki (thr).
T1 construct: human a-thrombin
Assay type: biochemical
Description: In vitro assay for determining proteinase inhibition Assays of human a-thrombin and human trypsin were performed at 25° C. in 0.05M TRIS buffer pH 7.4, 0.15M NaCl, 0.1% PEG. Trypsin assays also contained 1 mM CaCl2. In assays wherein rates of hydrolysis of a p-nitroanilide (pna) substrate were determined, a Thermomax 96-well plate reader was used to measure (at 405 nm) the time dependent appearance of p-nitroaniline. […] Activity assays were performed by diluting a stock solution of substrate at least tenfold to a final concentration 0.5 Km into a solution containing enzyme or enzyme equilibrated with inhibitor. Times required to achieve equilibration between enzyme and inhibitor were determined in control experiments. Initial velocities of product formation in the absence (Vo) or presence of inhibitor (Vi) were measured. Assuming competitive inhibition, and that unity is negligible compared Km /[S], […] (where [S], [I], and e respectively represent the total concentrations, of substrate, inhibitor and enzyme), the equilibrium constant (Ki) for dissociation of the inhibitor from the enzyme can be obtained from the dependence of Vo /Vi on [I] shown in equation 1.

Ki	Compound
100 to 1000 nM	c1cc(NCc2ccc(OC(C3CCCCC3)C3CC3)cc2)ccn1 (stereo not drawn)
> 1000 nM	c1ccc(CSc2ccc(CNc3ccncc3)cc2)cc1
> 1000 nM	c1cc(NCc2ccc(NCC3CCCCC3)cc2)ccn1
> 1000 nM	c1cc(NCc2ccc(OCC(C3CCCCC3)C3CCCCC3)cc2)ccn1
> 1000 nM	c1ccc(CNc2ccc(CNc3ccncc3)cc2)cc1
> 1000 nM	COC(=O)C(Oc1ccc(CNc2ccncc2)cc1)c1ccccc1 (stereo not drawn)
> 1000 nM	NC(=O)C(Oc1ccc(CNc2ccncc2)cc1)c1ccccc1 (stereo not drawn)
> 1000 nM	c1ccc(C(Oc2ccc(CNc3ccncc3)cc2)C2CCCCC2)cc1 (stereo not drawn)
> 1000 nM	c1cc(NCc2ccc(OCCCCC3CCCCC3)cc2)ccn1
> 1000 nM	CC(C)C(Oc1ccc(CNc2ccncc2)cc1)c1ccc2c(c1)OCO2 (stereo not drawn)
> 1000 nM	CCC(Oc1ccc(CNc2ccncc2)cc1)c1ccccc1 (stereo not drawn)
> 1000 nM	CC(Oc1ccc(CNc2ccncc2)cc1)c1ccccc1 (stereo not drawn)
> 1000 nM	c1ccc(CC(Cc2ccccc2)Oc2ccc(CNc3ccncc3)cc2)cc1 [4-[4-(1,3-diphenyl-2-propoxy)benzylamino]pyridine]
> 1000 nM	c1ccc(C(COc2ccc(CNc3ccncc3)cc2)c2ccccc2)cc1 [4-[4-(2,2-diphenylethoxy)benzylamino]pyridine]
> 1000 nM	c1cc(NCc2ccc(OCCC3CCCCC3)cc2)ccn1 [4-[4-(2-cyclohexylethoxy)benzylamino]pyridine]
> 1000 nM	CC(C)C(Oc1ccc(CNc2ccncc2)cc1)c1ccccc1 (stereo not drawn) [4-[4-(2-methyl-1-phenylpropoxy)benzylamino]pyridine]
> 1000 nM	c1cc(NCc2ccc(OCc3ccc4c(c3)OCO4)cc2)ccn1 [4-[4-(3,4-methylenedioxybenzyloxy)benzylamino]pyridine]
> 1000 nM	c1cc(NCc2ccc(OC(C3CCCCC3)C3CCCCC3)cc2)ccn1 [4-[4-(dicyclohexylmethoxy)-benzylamino]pyridine]
> 1000 nM	c1ccc(C(Oc2ccc(CNc3ccncc3)cc2)c2ccccc2)cc1 [N-4-(1,1-diphenylmethoxy)benzylaminopyridine]
> 1000 nM	c1ccc(COc2ccc(CNc3ccncc3)cc2)cc1 [N-4-(4-benzyloxybenzyl)aminopyridine]
> 1000 nM	c1cc(NCc2ccc(OCC3CCCCC3)cc2)ccn1 [N-4-(cyclohexylmethoxy)benzylaminopyridine]

Same assay, conditions: Table 3; 25° C., pH 7.4; read-out: Ki(th)

Ki	Compound
4400 nM	OCCc1cc(CNc2ccncc2)ccc1OCC1CCCCC1
3200 nM	c1cc(NCc2ccc(OCC3CCCCC3)c(C3CC3)c2)ccn1
800 nM	CCCc1cc(CNc2ccncc2)ccc1OC(c1ccccc1)C1CC1 (stereo not drawn)
1500 nM	CC(C)Cc1cc(CNc2ccncc2)ccc1OCC1CCCCC1
1300 nM	CCCc1cc(CNc2ccncc2)ccc1OC(Cc1ccccc1)C1CC1 (stereo not drawn)
260 nM	C=Cc1cc(CNc2ccncc2)ccc1OCC1CCCCC1
6400 nM	c1ccc(-c2cc(OCC3CCCCC3)ccc2CNc2ccncc2)cc1
3800 nM	CCCc1cc(CNc2ccncc2)cc(CO)c1OCC1CCCCC1
220 nM	CCCc1cc(CNc2ccncc2)ccc1OCC12CC3CC(CC(C3)C1)C2
740 nM	CCCc1cc(CNc2ccncc2)ccc1OCC1CCCCCC1
3200 nM	COc1cc(OCC2CCCCC2)ccc1CNc1ccncc1
500 nM	CCCc1cc(CNc2ccncc2)ccc1OC(Cc1ccccc1)C(C)C (stereo not drawn)
> 900 nM	CCCc1cc(CNc2ccncc2)c(Cc2ccccc2)cc1OCC1CCCCC1
1600 nM	Oc1cc(OCC2CCCCC2)ccc1CNc1ccncc1
320 nM	CCCc1cc(CNc2ccncc2)ccc1OC(c1ccccc1)c1ccccc1
1800 nM	CCCc1cc(CNc2ccncc2)ccc1OCc1ccc(OC)cc1
1800 nM	CCCc1cc(CNc2ccncc2)ccc1OCc1ccccc1
1800 nM	c1ccc(Cc2cc(OCC3CCCCC3)ccc2CNc2ccncc2)cc1 [4'-(4-cyclohexylmethyloxy-2-benzylphenylmethyl)-aminopyridine]
1800 nM	c1ccc(COc2cc(OCC3CCCCC3)ccc2CNc2ccncc2)cc1 [4-(4-cyclohexylmethyloxy-2-benzyloxybenzyl)aminopyridine]
2900 nM	Nc1cc(CNc2ccncc2)ccc1OCC1CCCCC1 [4-{[3-amino-4-(cyclohexylmethyloxy)phenyl]methylamino}pyridine dihydrochloride]
640 nM	CCc1cc(CNc2ccncc2)ccc1OCC1CCCCC1 [4-{[3-ethyl-4-(cyclohexylmethyloxy)phenyl]methylamino}pyridine]
500 nM	CCCc1cc(CNc2ccncc2)ccc1OCC1CCCCC1 [4-{[3-propyl-4-(cyclohexylmethyloxy)phenyl]methylamino}pyridine]
3200 nM	CC(C)CCc1cc(CNc2ccncc2)ccc1OCC1CCCCC1 [drawing 160]

Same assay, conditions: Table 4; 25° C., pH 7.4; read-out: Ki (thr)

Ki	Compound
> 10000 nM	c1ccc(-c2cc(CNc3ccncc3)ccc2OCC2CCCCC2)cc1
> 10000 nM	OCc1cc(CNc2ccncc2)ccc1OCC1CCCCC1
> 10000 nM	NCc1cc(CNc2ccncc2)ccc1OCC1CCCCC1
1000 to 10000 nM	CNCc1cc(CNc2ccncc2)ccc1OCC1CCCCC1
> 10000 nM	CNC(=O)c1cc(CNc2ccncc2)ccc1OCC1CCCCC1
> 10000 nM	CC(C)(C)OCCc1cc(CNc2ccncc2)ccc1OCC1CCCCC1
1000 to 10000 nM	CCCc1cc(CNc2ccncc2)cc(CN2CCCCC2)c1OCC1CCCCC1
> 10000 nM	CCCc1cc(CN(CC)c2ccncc2)ccc1OCC1CCCCC1
1000 to 10000 nM	CCCc1cc(CNc2ccncc2C)ccc1OCC1CCCCC1
100 to 1000 nM	CCCc1cc(CNc2ccncc2)ccc1OCC1CC2C=CC1C2 (stereo not drawn)
1000 to 10000 nM	CCCc1cc(CNc2ccncc2)ccc1OCc1cccc2ccccc12
1000 to 10000 nM	CC(C)CCc1cc(CNc2ccncc2)ccc1OCC1CCCCC1 [drawing 174]
1000 to 10000 nM	CCCc1cc(CNc2ccncc2)ccc1OCCC(C)C [i-butyl]

Same assay, conditions: Table 5; 25° C., pH 7.4; read-out: Ki(thr)

Ki	Compound
1000 to 10000 nM	N=C(N)N1CCN(S(=O)(=O)c2ccc(OCc3ccccc3)cc2)CC1 [N-((4-benzyloxy)phenylsulfonyl)-N'-aminomethyliminopiperazine]
100 to 1000 nM	CCc1cc(S(=O)(=O)N2CCN(C(=N)N)CC2)ccc1OCC1CCCCC1 [N-((4-cyclohexylmethyloxy)-3-ethyl-phenylsulfonyl)-N'-aminomethyliminopiperazine]

Same assay, conditions: Table 6; 25° C., pH 7.4; read-out: Ki(thr)

Ki	Compound
300 nM	CCCc1cc(Cc2ccc(C(=N)N)cc2)ccc1OCC1CCCCC1
280 nM	CCCc1cc(Cc2ccc(C(=N)N)cc2)ccc1OC(C(C)C)C1CCCCC1 (stereo not drawn)
102 nM	Cc1cc(Cc2ccc(C(=N)N)cc2)ccc1OCC1CCCCC1
77 nM	CCc1cc(Cc2ccc(C(=N)N)cc2)ccc1OCC1CCCCC1
20 nM	Cc1cc(Cc2ccc(C(=N)N)cc2)ccc1OC(C(C)C)C1CCCCC1 (stereo not drawn)
20 nM	CCc1cc(Cc2ccc(C(=N)N)cc2)ccc1OC(C(C)C)C1CCCCC1 (stereo not drawn)
170 nM	N=C(N)c1ccc(Cc2ccc(OCC3CCCCC3)cc2)cc1 [4-{[4-(Cyclohexylmethyloxy)phenyl]methyl}-benzamidine hydrochloride]
390 nM	N=C(N)c1ccc(Cc2ccc(OCc3ccccc3)cc2)cc1 [4-{[4-(Phenylmethyloxy)phenyl]methyl}benzamidine hydrochloride]

Same assay, conditions: Table 7; 25° C., pH 7.4; read-out: Ki(thr)

Ki	Compound
1000 to 10000 nM	c1cc(NCc2ccc(CCC3CCCCC3)cc2)ccn1
1000 to 10000 nM	c1ccc(OCc2ccc(CNc3ccncc3)cc2)cc1

Same assay, conditions: Table I; 25° C., pH 7.4; read-out: Ki (thr)

Ki	Compound
100 to 1000 nM	Nc1cc[n+](Cc2ccc(OCc3ccccc3)cc2)cc1
> 1000 nM	Nc1cc[n+](Cc2ccc(-c3ccccc3)cc2)cc1
> 1000 nM	Nc1cc[n+](Cc2ccc(OCc3ccccc3)nc2)cc1
> 1000 nM	Nc1cc[n+](Cc2ccc(OCc3ccccc3)cn2)cc1
> 1000 nM	COc1cc(C[n+]2ccc(N)cc2)ccc1OCc1ccccc1
> 1000 nM	Nc1cc[n+](Cc2ccc(OCc3ccccc3)c(OCc3ccccc3)c2)cc1
100 to 1000 nM	4-amino-1-(4-(1-phenyl-1-carbomethoxy)methoxybenzyl)pyridinium bromide
< 100 nM	Nc1cc[n+](Cc2ccc(OC(c3ccccc3)c3ccccc3)cc2)cc1 [4-amino-1-(4-(1,1-diphenylmethoxy)benzylpyridinium bromide]
100 to 1000 nM	Nc1cc[n+](Cc2ccc(OCC(C3CCCCC3)C3CCCCC3)cc2)cc1 [4-amino-1-(4-(2,2-dicyclohexyl-1-ethoxy)benzyl)pyridinium bromide]
100 to 1000 nM	Nc1cc[n+](Cc2ccc(OC(CCc3ccccc3)c3ccccc3)cc2)cc1 (stereo not drawn) [4-amino-1-[4-(1,3-diphenyl-1-propoxy)benzyl]pyridinium bromide]
100 to 1000 nM	Nc1cc[n+](Cc2ccc(OCC(c3ccccc3)c3ccccc3)cc2)cc1 [4-amino-1-[4-(2,2-diphenylethoxy)benzyl]pyridinium bromide]
100 to 1000 nM	Nc1cc[n+](Cc2ccc(OC(C3CCCCC3)C3CCCCC3)cc2)cc1 [4-amino-1-[4-(dicyclohexylmethoxy)benzyl]pyridinium bromide]
